Experimental data: patent US12065433B2, “Positive allosteric modulators of the muscarinic acetylcholine receptor M1” (Vanderbilt University, priority 2018, dated 2024)

Target: T1, human mAChR M1 (Homo sapiens, UniProt P11229)
T1 sequence (P11229 1-460): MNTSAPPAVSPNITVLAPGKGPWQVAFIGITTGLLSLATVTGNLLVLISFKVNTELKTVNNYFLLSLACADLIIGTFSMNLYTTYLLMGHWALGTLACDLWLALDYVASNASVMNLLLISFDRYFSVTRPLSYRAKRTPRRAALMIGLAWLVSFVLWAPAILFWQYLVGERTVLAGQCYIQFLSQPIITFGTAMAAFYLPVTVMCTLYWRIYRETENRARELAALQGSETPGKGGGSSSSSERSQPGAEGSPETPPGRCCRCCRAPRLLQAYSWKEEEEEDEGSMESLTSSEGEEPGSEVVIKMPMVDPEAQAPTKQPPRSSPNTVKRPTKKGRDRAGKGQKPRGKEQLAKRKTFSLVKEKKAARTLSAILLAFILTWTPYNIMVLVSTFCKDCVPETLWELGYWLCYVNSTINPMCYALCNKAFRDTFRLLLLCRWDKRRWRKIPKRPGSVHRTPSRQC
Assay: mAChR M1 cell-based functional assay (calcium mobilization, PAM mode)
Details: CHO-K1 cells stably expressing hM1, calcium flux (Fluo-4); for EC50: concentration-dependent increase in the EC20 acetylcholine response; for Emax: potentiation of EC20 acetylcholine response
Text: Chinese hamster ovary (CHO-K1) cells stably expressing rat (r)M1 were purchased from the American Type Culture Collection and cultured according to their indicated protocol. CHO cells stably expressing human (h)M2, hM3, and hM5 were described previously (Levey, et al., 1991); hM1 and hM4 cDNAs were purchased from Missouri S&T cDNA Resource; rM4 cDNA was provided by T. I. Bonner (National Institutes of Health, Bethesda, MD). rM2 and rM3 were cloned from a rat brain cDNA library and sequence verified. hM1, rM2, rM3, hM4, and rM4 cDNAs were used to stably transfect CHO-K1 cells purchased from the American Type Culture Collection using Lipofectamine2000. To make stable rM2, hM2, rM3, hM4, and rM4 cell lines for use in calcium mobilization assays, these cells also were stably transfected with a chimeric G-protein (Gqi5) (provided by B. R. Conklin, University of California, San Francisco) using Lipofectamine 2000. rM1, hM1, rM3, hM3, rM5, and hM5 cells were grown in Ham's F-12 medium containing 10% heat-inactivated fetal bovine serum (FBS), 20 mM HEPES, and 50 μg/mL G418 sulfate. rM2-Gqi5, hM2-Gqi5, and hM4-Gqi5 cells were grown in the same medium also containing 500 μg/mL Hygromycin B. Stable rM4-Gqi5 cells were grown in DMEM containing 10% heat-inactivated FBS, 20 mM HEPES, 400 μg/mL G418 sulfate, and 500 μg/mL Hygromycin B.
For high throughput measurement of agonist-evoked increases in intracellular calcium, CHO-K1 cells stably expressing muscarinic receptors were plated in growth medium lacking G418 and hygromycin at 15,000 cells/20 μL/well in Greiner 384-well black-walled, tissue culture (TC)-treated, clear-bottom plates (VWR). Cells were incubated overnight at 37° C. and 5% CO2. The next day, cells were washed using an ELX 405 (BioTek) with four washes (80 μL) of assay buffer then aspirated to 20 μL. Next, 20 μL of 16 μM Fluo-4/acetoxymethyl ester (Invitrogen, Carlsbad, CA) prepared as a 2.3 mM stock in DMSO and mixed in a 1:1 ratio with 10% (w/v) Pluronic F-127 and diluted in assay buffer was added to the wells and the cell plates were incubated for 50 min at 37° C. and 5% CO2. Dye was removed by washing with the ELX 405 (four […], washes of assay buffer) then aspirated to 20 μL. Compound master plates were formatted in an 11 point CRC format (1:3 dilutions) in 100% DMSO with a starting concentration of 10 mM using the BRAVO liquid handler (Agilent). Test compound CRCs were then transferred to daughter plates (240 nL) using the Echo acoustic plate reformatter (Labcyte, Sunnyvale, CA) and then diluted into assay buffer (40 μL) to a 2× stock using a Thermo Fisher Combi (Thermo Fisher Scientific, Waltham, MA).
Calcium flux was measured using the Functional Drug Screening System (FDSS) 6000 (Hamamatsu Corporation, Tokyo, Japan) as an increase in the fluorescent static ratio. Compounds were applied to cells (20 μL, 2×) using the automated system of the FDSS 6000 at 4 s into the 300 s protocol and the data were collected at 1 Hz. At 144 s into the 300 s protocol, 10 μL of an EC20 concentration of the muscarinic receptor agonist acetylcholine was added (5×), followed by the addition of 12 μL an EC80 concentration of acetylcholine at the 230 s time point (5×). Agonist activity was analyzed as a concentration-dependent increase in calcium mobilization upon compound addition. Emax values for agonist activity are expressed relative to the maximum for acetylcholine. Positive allosteric modulator activity was analyzed as a concentration-dependent increase in the EC20 acetylcholine response. Antagonist activity was analyzed as a concentration-dependent decrease in the EC80 acetylcholine response. Concentration-response curves were generated using a four-parameter logistical equation in XLfit curve fitting software (IDBS, Bridgewater, NJ) for Excel (Microsoft, Redmond, WA) or Prism (GraphPad Software, Inc., San Diego, CA). […]

Row | SMILES | EC50 | Emax
1 | [2H]C1([2H])Oc2c(C(=O)N[C@H]3CCOC[C@@H]3O)cc(Cc3ccc(-n4cccn4)cc3)c(C)c2O1 [Compound 22, 6-(4-(1H-pyrazol-1-yl)benzyl)-N-((3R,4S)-3-hydroxytetrahydro-2H-pyran-4-yl)-7-methylbenzo[d][1,3]dioxole-2,2-d2-4-carboxamide] | 0.044 µM | 72%
2 | [2H]C1([2H])Oc2c(C(=O)N[C@H]3CCCC[C@@H]3O)cc(Cc3ccc(-n4cccn4)cc3)c(C)c2O1 [Compound 23, 6-(4-(1H-pyrazol-1-yl)benzyl)-N-((1S,2S)-2-hydroxycyclohexyl)-7-methylbenzo[d][1,3]dioxole-2,2-d2-4-carboxamide] | 0.21 µM | 75%
3 | [2H]C1([2H])Oc2c(C(=O)N[C@H]3CCC[C@@H]3O)cc(Cc3ccc(-n4cccn4)cc3)c(C)c2O1 [Compound 24, 6-(4-(1H-pyrazol-1-yl)benzyl)-N-((1S,2S)-2-hydroxycyclopentyl)-7-methylbenzo[d][1,3]dioxole-2,2-d2-4-carboxamide] | 1 µM | 70%
